In paper PMC10507666, “Trifluoromethylthiolation of Tryptophan and Tyrosine Derivatives: A Tool for Enhancing the Local Hydrophobicity of Peptides” (The Journal of Organic Chemistry, 2023):
Where a name gives a salt, the structure may show the parent alone. Values belong to the compound of their own block, whether it stands above or below them. Residues, ends and D or L forms follow the SMILES beside them.

Experiments:
[1] = Chromatographic hydrophobicity index (CHI/HI, ϕ0) determination by isocratic RP-HPLC at pH 7; format: physicochemical; conditions: for Hydrophobicity index (HI): chromatographic, ϕ0 = –log k'w/S, pH 7, 50 mM ammonium acetate in mQ H2O / MeCN (6–22%), linear regression of four log k' values per peptide, UV 254 nm, Figure 1A; for Hydrophobicity index (HI) / k' (retention factor) / log(k'): isocratic RP-HPLC; for k' (retention factor) / log(k'): pH 7, UV 254 nm; for intercept log k'w at MeCN% = 0: linear regression of log k' versus MeCN content, pH 7, 50 mM ammonium acetate, Figure S5; for ΔHI (HI(CF3S)AA – HIAA): shift versus non-fluorinated tripeptide counterpart, chromatographic HI at pH 7
From the text: The hydrophobicity index (HI) shift ΔHI (HI(CF3S)AA – HIAA) is an assessment of the contribution of the CF3S substituent to the increase in local hydrophobicity. This method, developed by Valkó et al.,[27] has already been successfully applied to measure the increased local hydrophobicity of peptides containing fluorinated AAs.[6b],[28] This short peptide sequence was chosen to prevent the formation of secondary structures that could affect hydrophobicity (see the Supporting Information, Chapter 6, for details). […] It is noteworthy that the replacement of the Tyr residue with its CF3S-Tyr analogue provides a higher local enhancement of the hydrophobicity (ΔHI = HI(CF3S)Tyr – HITyrca. 12 units) compared to the Trp series (ΔHI = HI(CF3S)Trp – HITrpca. 8 units).
6. Hydrophobicity index determination
The peptides were prepared according to the SPPS general procedure.
The chromatographic hydrophobicity index (CHI) was determined according to the protocols described previously. 17 Experiments were performed at pH 7 using 50 mM ammonium acetate in mQ H2O and MeCN as mobile phase. Peptides 9-12 were dissolved in 50 mM ammonium acetate before injection (25 µL injection volume). Retention factors (k') were determined at λ = 254 nm at various MeCN concentrations ranging from 6–22% (k' = (tR–t0) / […]). Then, log k' was expressed as a function of MeCN content and linear regression was applied to four values per peptide. The intercept log k'w at MeCN% = 0 and the slopes S were extracted from the linear fit for each peptide (correlation coefficient: R2 > 0.99). The isocratic hydrophobicity index (CHI) was calcd for each peptide using the following equation: […]
RP-HPLC analysis: >95% purity; tR = 10.42 min (7% MeCN in ammonium acetate buffer (pH […]
(1 picture or pasted object on this page, not shown here)
Table of retention times (tR), dead times (t0), and calculated log k' and CHI for peptides 9-12 at pH 7: […]
Peptide 12 (22% MeCN in 50 mM ammonium acetate buffer, pH 7, 1 mL/min):
Chromatographic hydrophobicity index C HI (pH 7) of peptides 9-12 […]
Figure S5: RP-HPLC determination of the chromatographic hydrophobicity index CHI for peptides 9-12 at pH 7 by linear regression of log k' values as a function of MeCN content.

[2] = RP-HPLC retention time of EM-1 analogues (gradient); format: physicochemical; conditions: RP-HPLC analysis, gradient 20% → 60% MeCN + 0.1% TFA in H2O + 0.1% TFA; retention time used as support for enhanced local hydrophobicity
[3] = CF3S-tyramine versus tyramine, from pKa values in H2O/D2O 90:10
From the text: Figure 1 Biophysical property evaluation.
Finally, we assessed the influence of the CF3S group on the acidity of the vicinal phenol function in a simplified tyramine model carrying an ortho CF3S.

[4] = 15% MeCN in 50 mM ammonium acetate buffer
[5] = 17% MeCN in 50 mM ammonium acetate buffer
[6] = 18% MeCN in 50 mM ammonium acetate buffer
[7] = 19% MeCN in 50 mM ammonium acetate buffer
[8] = 20% MeCN in 50 mM ammonium acetate buffer
[9] = 21% MeCN in 50 mM ammonium acetate buffer
[10] = 22% MeCN in 50 mM ammonium acetate buffer
[11] = 6% MeCN in 50 mM ammonium acetate buffer
[12] = 7% MeCN in 50 mM ammonium acetate buffer
[13] = 8% MeCN in 50 mM ammonium acetate buffer
[14] = 9% MeCN in 50 mM ammonium acetate buffer
[15] = 12% MeCN in 50 mM ammonium acetate buffer
[16] = 13% MeCN in 50 mM ammonium acetate buffer
[17] = 14% MeCN in 50 mM ammonium acetate buffer

Hydrophobicity index (HI) [1]: 23.27
k' (retention factor) [1, 4]: 9.198
log(k') [1, 4]: 0.964
k' (retention factor) [1, 5]: 5.352
log(k') [1, 5]: 0.729
k' (retention factor) [1, 6]: 4.091
log(k') [1, 6]: 0.612
k' (retention factor) [1, 7]: 3.149
log(k') [1, 7]: 0.498
intercept log k'w at MeCN% = 0 [1]: 2.7107
ΔHI (HI(CF3S)AA – HIAA) [1]: ca. 12 units
Compound: CC(C)C[C@H](NC(=O)[C@H](Cc1ccc(O)c(SC(F)(F)F)c1)NC(=O)[C@H](C)N)C(=O)O [compound 11, TFA·H2N-Ala-(CF3S)Tyr-Leu-OH]

Compound: NC(=O)[C@H](Cc1ccccc1)NC(=O)[C@H](Cc1c(SC(F)(F)F)[nH]c2ccccc12)NC(=O)[C@@H]1CCCN1C(=O)[C@@H](N)Cc1ccc(O)cc1 [(CF3S)Trp-EM-1]
tR [2]: 10.9 min

Compound: NC(=O)[C@H](Cc1ccccc1)NC(=O)[C@H](Cc1c[nH]c2ccccc12)NC(=O)[C@@H]1CCCN1C(=O)[C@@H](N)Cc1ccc(O)cc1 [EM-1, endomorphin-1, reference compound]
tR [2]: 8.1 min

Compound: NC(=O)[C@H](Cc1ccccc1)NC(=O)[C@H](Cc1c[nH]c2ccccc12)NC(=O)[C@@H]1CCCN1C(=O)[C@@H](N)Cc1ccc(O)c(SC(F)(F)F)c1 [(CF3S)Tyr-EM-1]
tR [2]: 11.6 min

Hydrophobicity index (HI) [1]: 27.15
k' (retention factor) [1, 7]: 9.031
log(k') [1, 7]: 0.956
k' (retention factor) [1, 8]: 6.844
log(k') [1, 8]: 0.835
k' (retention factor) [1, 9]: 5.211
log(k') [1, 9]: 0.717
k' (retention factor) [1, 10]: 4.025
log(k') [1, 10]: 0.605
intercept log k'w at MeCN% = 0 [1]: 3.1793
ΔHI (HI(CF3S)AA – HIAA) [1]: ca. 8 units
Compound: CC(C)C[C@H](NC(=O)[C@H](Cc1c(SC(F)(F)F)[nH]c2ccccc12)NC(=O)[C@H](C)N)C(=O)O [compound 12, TFA·H2N-Ala-(CF3S)Trp-Leu-OH]

Hydrophobicity index (HI) [1]: 11.37
k' (retention factor) [1, 11]: 6.432
log(k') [1, 11]: 0.808
k' (retention factor) [1, 12]: 4.433
log(k') [1, 12]: 0.647
k' (retention factor) [1, 13]: 3.166
log(k') [1, 13]: 0.501
k' (retention factor) [1, 14]: 2.284
log(k') [1, 14]: 0.359
intercept log k'w at MeCN% = 0 [1]: 1.6998
Compound: CC(C)C[C@H](NC(=O)[C@H](Cc1ccc(O)cc1)NC(=O)[C@H](C)N)C(=O)O [compound 9, TFA·H2N-L-Ala-L-Tyr-L-Leu-OH] (H-Ala-Tyr-Leu-OH)

increase of the acidity of the vicinal hydroxyl group [3]: 100 fold
Compound: CF3S-tyramine [6e]

Hydrophobicity index (HI) [1]: 19.13
k' (retention factor) [1, 15]: 7.397
log(k') [1, 15]: 0.869
k' (retention factor) [1, 16]: 5.507
log(k') [1, 16]: 0.741
k' (retention factor) [1, 17]: 4.188
log(k') [1, 17]: 0.622
k' (retention factor) [1, 4]: 3.191
log(k') [1, 4]: 0.504
intercept log k'w at MeCN% = 0 [1]: 2.3234
Compound: CC(C)C[C@H](NC(=O)[C@H](Cc1c[nH]c2ccccc12)NC(=O)[C@H](C)N)C(=O)O [compound 10, TFA·H2N-Ala-Trp-Leu-OH] (H-Ala-Trp-Leu-OH)
